Source: patent publication US7951829B2, “Benzimidazole modulators of VR1” (Janssen Pharmaceutica NV, priority 2006, dated 2011)

What was measured:
hVR1 [1] = biological target: T1, hVR1 (Homo sapiens, UniProt Q8NER1); test: Human VR1 (hVR1) Binding Assay ([3H] RTX binding); conditions: inhibition of [3H] RTX binding, membranes of HEK293 cells transfected with hVR1
T1 construct: expressed in transfected cells; host or cells: HEK293

hVR1 [2] = biological target: T1, hVR1; test: Human VR1 (hVR1) Functional Assay (FLIPR intracellular calcium, capsaicin challenge); format: cell-based; conditions: capsaicin 0.030 μM, HEK293 cells expressing hVR1; for inhibition at 1 µM: test concentration 1 μM

T1 sequence (Q8NER1 whole entry): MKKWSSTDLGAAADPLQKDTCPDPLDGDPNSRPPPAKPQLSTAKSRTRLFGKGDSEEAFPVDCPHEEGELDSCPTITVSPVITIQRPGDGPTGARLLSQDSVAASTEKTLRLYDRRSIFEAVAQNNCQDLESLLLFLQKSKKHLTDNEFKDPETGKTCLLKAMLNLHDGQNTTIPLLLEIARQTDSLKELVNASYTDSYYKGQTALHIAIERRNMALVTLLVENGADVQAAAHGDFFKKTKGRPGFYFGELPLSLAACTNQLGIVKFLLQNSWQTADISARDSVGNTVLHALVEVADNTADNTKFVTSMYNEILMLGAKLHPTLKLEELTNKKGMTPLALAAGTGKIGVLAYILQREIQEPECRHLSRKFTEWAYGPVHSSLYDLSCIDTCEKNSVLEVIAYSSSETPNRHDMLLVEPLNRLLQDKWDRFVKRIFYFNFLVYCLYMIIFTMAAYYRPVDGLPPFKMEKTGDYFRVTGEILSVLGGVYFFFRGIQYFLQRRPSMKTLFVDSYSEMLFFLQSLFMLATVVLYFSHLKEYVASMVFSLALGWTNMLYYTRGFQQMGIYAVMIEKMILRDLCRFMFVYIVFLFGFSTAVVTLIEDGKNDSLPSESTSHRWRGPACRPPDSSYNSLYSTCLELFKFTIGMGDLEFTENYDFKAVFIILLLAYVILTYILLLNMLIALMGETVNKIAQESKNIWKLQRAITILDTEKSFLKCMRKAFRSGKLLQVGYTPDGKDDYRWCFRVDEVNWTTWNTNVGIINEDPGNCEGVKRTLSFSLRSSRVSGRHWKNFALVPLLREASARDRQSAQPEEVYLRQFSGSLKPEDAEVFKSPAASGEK

Row | SMILES | Ki (hVR1 [1]) [nM] | IC50 (hVR1 [2]) [nM] | inhibition at 1 µM (hVR1 [2]) [%]
1 | CC(=O)c1ccccc1-c1ccc2[nH]c(/C=C/c3ccc(C(F)(F)F)cc3)nc2c1 [Cpd 15, (E)-1-(2-{2-[2-(4-trifluoromethyl-phenyl)-vinyl]-1H-benzimidazol-5-yl}-phenyl)-ethanone] | 41 | 120 | 100
2 | NS(=O)(=O)c1ccccc1-c1ccc2[nH]c(/C=C/c3ccc(OC(F)(F)F)cc3)nc2c1 [Cpd 69, (E)-2-{2-[2-(4-trifluoromethoxy-phenyl)-vinyl]-1H-benzimidazol-5-yl}-benzenesulfonamide] | 6 | 6 | 98
3 | CC(C)(C)c1ccc(/C=C/c2nc3cc(-c4ccccc4C(N)=O)ccc3[nH]2)cc1 [Cpd 5, (E)-2-{2-[2-(4-tert-butyl-phenyl)-vinyl]-1H-benzimidazol-5-yl}-benzamide] | 17 | 71 | 100
4 | Oc1ccccc1-c1ccc2[nH]c(/C=C/c3ccc(SC(F)(F)F)cc3)nc2c1 [Cpd 36, (E)-2-{2-[2-(4-trifluoromethylsulfanyl-phenyl)-vinyl]-1H-benzimidazol-5-yl}-phenol] | 820 |  | 44
5 | Oc1ccccc1-c1ccc2[nH]c(/C=C/c3ccc(C(F)(F)F)cc3)nc2c1 [Cpd 14, (E)-2-{2-[2-(4-trifluoromethyl-phenyl)-vinyl]-1H-benzimidazol-5-yl}-phenol] | 380 | 1000 | 49
6 | NS(=O)(=O)c1ccccc1-c1ccc2[nH]c(/C=C/c3ccc(S(=O)(=O)C(F)(F)F)cc3)nc2c1 [Cpd 71, (E)-2-{2-[2-(4-trifluoromethanesulfonyl-phenyl)-vinyl]-1H-benzimidazol-5-yl}-benzenesulfonamide] | 22 | 22 | 99
7 | CC(=O)c1ccccc1-c1ccc2[nH]c(/C=C/c3ccc(S(=O)(=O)C(F)(F)F)cc3)nc2c1 [Cpd 40, (E)-1-(2-{2-[2-(4-trifluoromethanesulfonyl-phenyl)-vinyl]-1H-benzimidazol-5-yl}-phenyl)-ethanone] | 81 | 54 | 99
8 | CC(=O)Nc1ccccc1-c1cc2nc(/C=C/c3ccc(C(C)(C)C)cc3)[nH]c2cc1C(F)(F)F [Cpd 50, (E)-N-(2-{2-[2-(4-tert-butyl-phenyl)-vinyl]-6-trifluoromethyl-1H-benzimidazol-5-yl}-phenyl)-acetamide] | 16 | 100 | 100
9 | CC(C)(C)c1ccc(/C=C/c2nc3cc(-c4ccccc4CO)c(C(F)(F)F)cc3[nH]2)cc1 [Cpd 51, (E)-(2-{2-[2-(4-tert-butyl-phenyl)-vinyl]-6-trifluoromethyl-1H-benzimidazol-5-yl}-phenyl)-methanol] | 6.4 | 66 | 100
10 | CNS(=O)(=O)c1ccccc1-c1ccc2[nH]c(/C=C/c3ccc(C(F)(F)F)c(F)c3)nc2c1 [Cpd 319, (E)-2-{2-[2-(3-fluoro-4-trifluoromethyl-phenyl)-vinyl]-1H-benzimidazol-5-yl}-N-methyl-benzenesulfonamide] | 6 | 10 | 100
11 | CC(C)c1ccc(/C=C/c2nc3cc(-c4ccccc4NS(C)(=O)=O)ccc3[nH]2)cc1 [Cpd 407, (E)-N-(2-{2-[2-(4-isopropyl-phenyl)-vinyl]-1H-benzimidazol-5-yl}-phenyl)-methanesulfonamide] | 5.7 | 9 | 96
12 | NC(=O)c1ccccc1-c1ccc2[nH]c(/C=C/c3ccc(F)c(F)c3)nc2c1 [Cpd 26, (E)-2-{2-[2-(3,4-difluoro-phenyl)-vinyl]-1H-benzimidazol-5-yl}-benzamide] |  |  | 6
13 | NS(=O)(=O)c1ccccc1-c1ccc2[nH]c(CCc3c(F)cccc3F)nc2c1 [Cpd 386, 2-{2-[2-(2,6-difluoro-phenyl)-ethyl]-1H-benzimidazol-5-yl}-benzenesulfonamide] |  | 43 | 96
14 | NS(=O)(=O)c1ccccc1-c1ccc2[nH]c(/C=C/c3cccc(Br)c3)nc2c1 [Cpd 376, (E)-2-{2-[2-(3-bromo-phenyl)-vinyl]-1H-benzimidazol-5-yl}-benzenesulfonamide] |  | 28 | 100
15 | NS(=O)(=O)c1cc(C(F)(F)F)ccc1-c1ccc2[nH]c(/C=C/c3ccc(C(F)(F)F)cc3)nc2c1 [Cpd 446, (E)-5-trifluoromethyl-2-{2-[2-(4-trifluoromethyl-phenyl)-vinyl]-1H-benzimidazol-5-yl}-benzenesulfonamide] |  | 76 | 97
16 | NS(=O)(=O)c1ccccc1-c1ccc2[nH]c([C@@H]3C[C@H]3c3ccc(C(F)(F)F)cc3)nc2c1 [Cpd 502, 2-{2-[(1R,2R)-2-(4-trifluoromethyl-phenyl)-cyclopropyl]-1H-benzimidazol-5-yl}-benzenesulfonamide] |  | 190 | 82

Further lines, results first:

Row | Ki (hVR1 [1]) [nM] | IC50 (hVR1 [2]) [nM] | inhibition at 1 µM (hVR1 [2]) [%] | SMILES
17 | 9.7 | 27 | 100 | CC(=O)c1ccccc1-c1ccc2[nH]c(/C=C/c3ccc(C(C)(C)C)cc3)nc2c1 [Cpd 1, (E)-1-(2-{2-[2-(4-tert-butyl-phenyl)-vinyl]-1H-benzimidazol-5-yl}-phenyl)-ethanone]
18 | 20 | 140 |  | CC(C)(C)c1ccc(/C=C/c2nc3cc(-c4ccccc4O)ccc3[nH]2)cc1 [Cpd 3, (E)-2-{2-[2-(4-tert-butyl-phenyl)-vinyl]-1H-benzimidazol-5-yl}-phenol]
19 | 100 | 380 | 77 | CC(C)(C)c1ccc(CCc2nc3cc(-c4ccccc4O)ccc3[nH]2)cc1 [Cpd 32, 2-{2-[2-(4-tert-butyl-phenyl)-ethyl]-1H-benzimidazol-5-yl}-phenol]
20 | 18 | 7 | 100 | NS(=O)(=O)c1ccccc1-c1ccc2[nH]c(/C=C/c3ccc(Cl)cc3)nc2c1 [Cpd 79, (E)-2-{2-[2-(4-chloro-phenyl)-vinyl]-1H-benzimidazol-5-yl}-benzenesulfonamide]
21 | 31 | 400 | 78 | CC(=O)Nc1ccccc1-c1ccc2[nH]c(/C=C/c3ccc(C(C)(C)C)cc3)nc2c1 [Cpd 4, (E)-N-(2-{2-[2-(4-tert-butyl-phenyl)-vinyl]-1H-benzimidazol-5-yl}-phenyl)-acetamide]
22 | 0.9 | 2 | 99 | CC(C)(C)c1ccc(/C=C/c2nc3cc(-c4ccccc4NS(C)(=O)=O)ccc3[nH]2)cc1 [Cpd 9, (E)-N-(2-{2-[2-(4-tert-butyl-phenyl)-vinyl]-1H-benzimidazol-5-yl}-phenyl)-methanesulfonamide]
23 | 39 | 7 | 98 | NS(=O)(=O)c1ccccc1-c1ccc2[nH]c(/C=C/c3ccc(F)cc3)nc2c1 [Cpd 434, (E)-2-{2-[2-(4-fluoro-phenyl)-vinyl]-1H-benzimidazol-5-yl}-benzenesulfonamide]
24 |  | > 500 |  | CS(=O)(=O)Nc1ccccc1-c1ccc2[nH]c(/C=C/c3ccc(S(C)(=O)=O)cc3)nc2c1 [Cpd 83, (E)-N-(2-{2-[2-(4-methanesulfonyl-phenyl)-vinyl]-1H-benzimidazol-5-yl}-phenyl)-methanesulfonamide]
